The subject of assay [1] is NDM-1 Escherichia coli (BAA2469). In words: chequerboard analysis, log phase culture, 24 hours incubation, FICI calculated. Format: cell-based. Also noted: key: FICI; ≤0.5 synergy, 0.5–4.0 no interaction, ≥4.0 antagonism. As for the experimental part:
(§1) Log phase bacterial culture was incubated with HT0160010 and CMS in combination using the chequerboard method known in the art. The overnight culture was diluted with nutrient broth (Oxoid) to 10^7 CFU/ml and 280 μl of the culture was added to each well to make a final concentration of 300 μl. Incubation of the compounds with the bacterial suspension was carried out for 24 hours. The HT0160010 concentration ranged from 128 to 0 μg/ml and the CMS concentration ranged from 16 to 0 μg/ml.
(§2) The effects of the combination were examined by calculating the fractional inhibitory concentration index (FICI) of each combination, as follows: (MIC of drug A, tested in combination)/(MIC of drug A, tested alone)+(MIC of drug B, tested in combination)/(MIC of drug B, tested alone). The interaction of the combination was defined as showing synergy if the FICI was ≤0.5, no interaction if the FICI was ≥0.5 but ≤4.0 and antagonism if the FICI was ≥4.0.
• Bacterial strain used: BAA2469 strain of NDM-1 E. coli from ATCC®. • Growth of bacteria: Log phase growth of the bacteria was carried out according to methods known in the art.
Compounds and preparation were the same as Example 1. The effects of the combination were also examined by calculating the FICI in the same manner as Example 1.
(§3) Log phase bacterial culture was incubated with HT0160009 and CMS in combination using the chequerboard method known in the art. The overnight culture was diluted with nutrient broth (Oxoid) to 10^7 CFU/ml and 280 μl of the culture was added to each well to make a final concentration of 300 μl. Incubation of the compounds with the bacterial suspension was carried out for 24 hours. The HT0160010 concentration ranged from 256 to 0 μg/ml and the CMS concentration ranged from 16 to 0 μg/ml.
Compounds and preparation were the same as Example 3. The effects of the combination were also examined by calculating the FICI in the same manner as Example 3.

The test system of assay [2] is NDM-1 Klebsiella pneumoniae subsp. pneumoniae (BAA2472). The description is as above. Format: cell-based. As to the method: • Bacterial strain used: BAA2472 strain of NDM-1 Klebsiella pneumoniae subsp. pneumoniae from ATCC®. • Growth of bacteria: Log phase growth of the bacteria was carried out according to methods known in the art. • Compounds and preparation: • (i) HT0160010 was obtained from a commercial source and dissolved in DMSO to make a stock concentration of 10 mg/ml. • (ii) Colistimethate sodium (CMS) was obtained from a commercial source (e.g. Sigma Aldrich) at a concentration of 10 mg/ml.
as §1, §2
• Bacterial strain used: BAA2472 strain of NDM-1 Klebsiella pneumoniae subsp. pneumoniae from ATCC®. • Growth of bacteria: Log phase growth of the bacteria was carried out according to methods known in the art.
• (i) HT0160009 was obtained from a commercial source and dissolved in DMSO to make a stock concentration of 10 mg/ml. • (ii) Colistimethate sodium (CMS) was obtained from a commercial source (e.g. Sigma Aldrich) at a concentration of 10 mg/ml.
as §3
The effects of the combination were examined by calculating the FICI in the same manner as Example 1.

Setting [3] is: CMS 0.015625 μg/ml, HT0160010 0.

In the case of `O=C(c1cc(C(F)(F)F)nc2c(C(F)(F)F)cccc12)C1CCCCN1` (stereo not shown) [HT0160009], the chequerboard results is 0.61 in assay [1] (HT0160009 4 μg/ml, CMS 0); 0.54 in assay [1] (HT0160009 8 μg/ml, CMS 0); 0.58 in assay [1] (HT0160009 16 μg/ml, CMS 0); 0.32 in assay [1] (HT0160009 32 μg/ml, CMS 0); 0.22 in assay [1] (HT0160009 64 μg/ml, CMS 0); 0.21 in assay [1] (HT0160009 128 μg/ml, CMS 0). Also, the chequerboard results is 0.05 in assay [1] (HT0160009 256 μg/ml, CMS 0); 0.50 in assay [2] (HT0160009 4 μg/ml, CMS 0); 0.50 in assay [2] (HT0160009 8 μg/ml, CMS 0); 0.49 in assay [2] (HT0160009 16 μg/ml, CMS 0); 0.25 in assay [2] (HT0160009 32 μg/ml, CMS 0); 0.17 in assay [2] (HT0160009 64 μg/ml, CMS 0). Besides, the chequerboard results is recorded as 0.14 in assay [2] (HT0160009 128 μg/ml, CMS 0) and 0.05 in assay [2] (HT0160009 256 μg/ml, CMS 0).

Consider Colistimethate sodium [CMS], for which the chequerboard results in assay [1] (setting [3]) is reported as 0.59; in assay [1] (CMS 0.016 μg/ml, HT0160009 0) it was 0.62; in assay [1] (CMS 0.031 μg/ml, HT0160009 0) it was 0.64; in assay [1] (CMS 0.03125 μg/ml, HT0160010 0) it was 0.68; in assay [1] (CMS 0.0625 μg/ml, HT0160010 0), 0.61; in assay [1] (CMS 0.063 μg/ml, HT0160009 0) it was 0.66. Also, the chequerboard results in assay [1] (CMS 0.125 μg/ml, HT0160009 0) is given as 0.63; in assay [1] (CMS 0.125 μg/ml, HT0160010 0), 0.59; in assay [1] (CMS 0.25 μg/ml, HT0160009 0), 0.62; in assay [1] (CMS 0.25 μg/ml, HT0160010 0), 0.61; in assay [1] (CMS 0.5 μg/ml, HT0160009 0), 0.62; in assay [1] (CMS 0.5 μg/ml, HT0160010 0), 0.59. Besides, the chequerboard results in assay [1] (CMS 1 μg/ml, HT0160009 0) is listed as 0.56; in assay [1] (CMS 1 μg/ml, HT0160010 0), 0.55; in assay [1] (CMS 2 μg/ml, HT0160009 0), 0.55; in assay [1] (CMS 2 μg/ml, HT0160010 0), 0.54; in assay [1] (CMS 4 μg/ml, HT0160009 0) it was 0.05; in assay [1] (CMS 4 μg/ml, HT0160010 0), 0.18. The chequerboard results in assay [1] (CMS 8 μg/ml, HT0160009 0) is on record as 0.05; in assay [1] (CMS 8 μg/ml, HT0160010 0), 0.05; in assay [1] (CMS 16 μg/ml, HT0160009 0), 0.05; in assay [1] (CMS 16 μg/ml, HT0160010 0), 0.05; in assay [2] (setting [3]), 0.54; in assay [2] (CMS 0.016 μg/ml, HT0160009 0) it was 0.52. The chequerboard results in assay [2] (CMS 0.031 μg/ml, HT0160009 0) is 0.52; in assay [2] (CMS 0.03125 μg/ml, HT0160010 0) it was 0.53; in assay [2] (CMS 0.0625 μg/ml, HT0160010 0), 0.54; in assay [2] (CMS 0.063 μg/ml, HT0160009 0), 0.53; in assay [2] (CMS 0.125 μg/ml, HT0160009 0), 0.53; in assay [2] (CMS 0.125 μg/ml, HT0160010 0), 0.52. Besides, the chequerboard results in assay [2] (CMS 0.25 μg/ml, HT0160009 0) is 0.53; in assay [2] (CMS 0.25 μg/ml, HT0160010 0), 0.51; in assay [2] (CMS 0.5 μg/ml, HT0160009 0), 0.53; in assay [2] (CMS 0.5 μg/ml, HT0160010 0), 0.52; in assay [2] (CMS 1 μg/ml, HT0160009 0), 0.50; in assay [2] (CMS 1 μg/ml, HT0160010 0), 0.41. The chequerboard results in assay [2] (CMS 2 μg/ml, HT0160009 0) is 0.04; in assay [2] (CMS 2 μg/ml, HT0160010 0) it was 0.05; in assay [2] (CMS 4 μg/ml, HT0160009 0), 0.04; in assay [2] (CMS 4 μg/ml, HT0160010 0), 0.04; in assay [2] (CMS 8 μg/ml, HT0160009 0), 0.04; in assay [2] (CMS 8 μg/ml, HT0160010 0), 0.05. The chequerboard results is given as 0.04 in assay [2] (CMS 16 μg/ml, HT0160009 0) and 0.05 in assay [2] (CMS 16 μg/ml, HT0160010 0).

Regarding `OC(c1ccccn1)c1cc(C(F)(F)F)nc2c(C(F)(F)F)cccc12` (stereo not shown) [HT0160010, (2,8-bis-trifluoromethyl-quinolin-4-yl)-pyridin-2-yl-methanol], the chequerboard results was 0.62 in assay [1] (HT0160010 4 μg/ml, CMS 0); 0.58 in assay [1] (HT0160010 8 μg/ml, CMS 0); 0.61 in assay [1] (HT0160010 16 μg/ml, CMS 0); 0.62 in assay [1] (HT0160010 32 μg/ml, CMS 0); 0.64 in assay [1] (HT0160010 64 μg/ml, CMS 0); 0.61 in assay [1] (HT0160010 128 μg/ml, CMS 0). Besides, the chequerboard results in assay [2] (HT0160010 4 μg/ml, CMS 0) is on record as 0.54; in assay [2] (HT0160010 8 μg/ml, CMS 0) it was 0.57; in assay [2] (HT0160010 16 μg/ml, CMS 0) it was 0.56; in assay [2] (HT0160010 32 μg/ml, CMS 0), 0.56; in assay [2] (HT0160010 64 μg/ml, CMS 0), 0.56; in assay [2] (HT0160010 128 μg/ml, CMS 0) it was 0.57.

Values taken from US20200197480A1, “COMBINATION COMPRISING A PARTICULAR POLYMYXIN” (HELPERBY THERAPEUTICS LIMITED, priority 2017, published 2020).
